The values that follow come from patent US20210085796A1, “ANTICANCER DRUGS AND METHODS OF MAKING AND USING SAME” (YALE UNIVERSITY, priority 2017, published 2021).

“Also recorded” adds a separate entry of the source.

Data set [1] in a line: Serum stability of prodrug (LCMS, 490 nm absorbance). The format is in vitro ADME. Conditions: 50 μM in PBS pH 7.4 with 20% mouse serum, 37° C., 6 hours of incubation. The procedure:
FIG. 4A depicts liquid chromatography data showing the stability of YU241528 in serum.
The prodrug strategies of this invention are thought to impart their benefits during the distribution and cell uptake steps of anticancer therapy. In certain embodiments, a prodrug is stable in the blood for a period sufficient to allow for cell uptake and systemic clearance. To test this, 50 μM YU241528 in a solution of PBS, pH 7.4, containing 20% mouse serum was incubated at 37° C. At regular intervals, aliquots were taken and mixed with 2 volumes of ethanol to precipitate serum proteins, then centrifuged. Supernatants were analyzed by LCMS. […] The predominant peak was identified as YU241528 by mass spectrometry.

Data set [2] is described as follows: Reductive activation / doxorubicin release in 5 mM GSH (LCMS). Type of data set: in vitro ADME. Conditions: 50 μM, PBS pH 7.4, 5 mM GSH, 37° C. The procedure: In certain embodiments, the prodrug releases the active form of the drug once inside a cancer cell. Once inside the cell, drug release can be triggered by reduction of the disulfide bond in the linker. To evaluate the reductive activation of drug release, 50 μM YU241528 in a solution of PBS, pH 7.4, containing 5 mM GSH (a typical intracellular concentration of the predominant biological reducing agent) was incubated at 37° C. Aliquots were taken at regular intervals and analyzed by LCMS.

For the next data set, the system named is HeLa cells. Put plainly: pH-dependent cell uptake by flow cytometry. Type of data set: cell-based. Conditions: 5 μM, 1 hour, pH 7.4 vs pH 6.5. From the text: FIGS. 5A-5B depict representative flow cytometry traces of pH-dependent cell treatments. […] Normalized cell counts (Y-axes) are plotted vs. doxorubicin fluorescence intensity per cell (X-axes).
(In general: A flow cytometer gives signals particle by particle.)

A short description of data set [3]: Blood levels after tail vein injection. The format is in vivo, adult female balb/c mice. The procedure:
Given that the drug's distribution and clearance can be expected to be substantially complete by about 6 hours after administration, in certain embodiments the peak intracellular dose is achieved long before this process might interfere to a significant degree, even assuming the altered metabolite is indeed compromised in its activity. […] In certain embodiments, the serum stability of YU241528 allows for effective therapy. […] In certain embodiments, the prodrug undergoes a different elimination path, as hepatobiliary elimination of weakly-ionic organic substances is sensitive to charge, size, and lipophilicity.

The test system of data set [4] is MDA-MB-231 breast cancer cells. The data set can be described thus: pH-dependent cell growth inhibition (CellTiter-Glo). The format is cell-based, Human. Conditions: 6 hours treatment at pH 7.4 or pH 6.2, then 72 hours growth. Here is the method:
Cells treated for 6 hours at pH 7.4 (normal physiological pH, X traces) or pH 6.2 (acidic solid tumor pH, Y traces) were subsequently allowed to grow in normal growth medium for 72 hours, then cell viability was evaluated using the CellTiter-Glo assay kit (Promega). Normalized percent cell growth inhibition is plotted on the left side of each panel and IC50 values reported at each pH from non-linear regression analysis.
(§1) In order to evaluate pH-dependent activity, treatments are performed at atypical cell culture conditions. […] Several cell lines have been evaluated using this method and for each, cell seeding density and treatment duration is independently experimentally determined. Each experiment is normalized to sham and complete activity controls for each pH condition.
Human MDA-MB-231 breast cancer cells seeded at low density on tissue culture treated 384-well plates, allowed to adhere and grow in serum-supplemented growth medium for 24 hours, then treated under pH-controlled conditions for 6 hours, and finally washed and grown in fresh growth media for 72 hours were assessed for cell survival using the CellTiter-Glo assay system (Promega) (FIG. 6).
For orientation: ATP-based viability assays read luminescence as a measure of living cells.

The conditions of data set [5]: cited from earlier work.
Data set [6] concerns PEO1 ovarian cancer cells. The data set can be described thus: pH-dependent cell growth inhibition, transient treatment. Type of data set: cell-based. Conditions: for pH dependence of cell growth inhibition: pH 7.4 vs pH 6.2. Here is the method: FIG. 9 depicts pH-dependent cell growth inhibition of PEO1 ovarian cancer cells in culture, treated transiently with various prodrugs of the invention, as described above.
FIG. 10 depicts pH-dependent cell growth inhibition of PEO1 ovarian cancer cells in culture, treated transiently with an anticancer kinase inhibitor drug, Osimertinib, or a compound of the invention, based on an active core of that drug, YU253673.
as §1
Similar results have been obtained from pH-dependent cell growth inhibition assays with other classes of Drug using the prodrug approach.

Another data set has as its system EMT-6 flank tumors. The data set can be described thus: In vivo efficacy and toxicity in EMT-6 flank tumor model. Also on record: species or system Balb/c mice. Conditions: IV once daily for 5 days. The text has this:
FIG. 7 depicts representative in vivo study on the efficacy and toxicity of compounds of the invention. […] Mean tumor volume and mean body weight graphs are shown for groups of 10 tumor-bearing mice.
FIG. 8 depicts the dose dependence of YU241531 (right panel) and YU244206 (left panel) treatments in the EMT-6 tumor model in Balb/c mice.

Turning to “8-((2-((((2S,3S,4S,6R)-3-hydroxy-2-methyl-6-(((1S,3S)-3,5,12-trihydroxy-3-(2-hydroxyacetyl)-10-methoxy-6,11-dioxo-1,2,3,4,6,11-hexahydrotetracen-1-yl)oxy)tetrahydro-2H-pyran-4-yl)carbamoyl)oxy)ethyl)disulfaneyl)-2,2-dimethyloctanoic acid [YU241528]”, the “release of free doxorubicin / stability in serum” value in data set [1] is on record as “no active doxorubicin is released; also recorded: no free doxorubicin was detected; also recorded: stable in serum”. In data set [2], the “t1/2 of reduction of the disulfide” value is approximately 2.7 min. Also, in the data set on HeLa cells, the “pH preference of cell uptake” value is reported as “preferentially taken up by cells at cancerous pH 6.5 versus cells at normal pH 7.4”. Besides, the “non-compartmental half-life in blood” value in data set [3] is “about 1 hour”. Besides, the “level in the blood at 6 hours post injection” value in data set [3] (6 hours) is listed as “remains at detectable levels”. In addition, the “level in the blood at 24 hours post injection” value in data set [3] (24 hours) is reported as “undetectable”.
`COc1cccc2c1C(=O)c1c(O)c3c(c(O)c1C2=O)C[C@@](O)(C(=O)CO)C[C@@H]3O[C@H]1C[C@H](N)[C@H](O)[C@H](C)O1` [Doxorubicin, reference compound]: the “pH preference of cell uptake” value in the data set on HeLa cells is “greater uptake into cells at normal physiologic pH 7.4 than into cells at cancerous pH 6.5”. Moreover, the “pH dependence of cell growth inhibition” value in data set [4] is “greater growth inhibition at basic healthy pH”. In addition, the “basic pKA of amine group” value in data set [5] is approximately 8.
For the molecule `C=CC(=O)Nc1cc(Nc2nccc(-c3cn(C)c4ccccc34)n2)c(OC)cc1N(C)CCN(C)C` [Osimertinib, reference compound], in data set [6], the “pH dependence of cell growth inhibition” value was “slightly lower IC50 value at healthy pH 7.4”.
For the molecule `COc1cccc2c1C(=O)c1c(O)c3c(c(O)c1C2=O)C[C@@](O)(C(=O)CO)C[C@@H]3O[C@H]1C[C@H](NC(=O)OCCSSCCCCCCCC(=O)O)[C@H](O)[C@H](C)O1` [YU241531, 8-((2-((((2S,3S,4S,6R)-3-hydroxy-2-methyl-6-(((1S,3S)-3,5,12-trihydroxy-3-(2-hydroxyacetyl)-10-methoxy-6,11-dioxo-1,2,3,4,6,11-hexahydrotetracen-1-yl)oxy)tetrahydro-2H-pyran-4-yl)carbamoyl)oxy)ethyl)disulfaneyl)octanoic acid], in data set [4], the “pH dependence of cell growth inhibition” value was “greater growth inhibition at acidic tumor pH”. Further, the “body weight loss compared to sham treated controls” value with EMT-6 flank tumors is recorded as “no detectable weight loss”.
`COc1cccc2c1C(=O)c1c(O)c3c(c(O)c1C2=O)C[C@@](O)(C(=O)CO)C[C@@H]3O[C@H]1C[C@H](NC(=O)OCCSSCCCc2c(F)c(F)c(O)c(F)c2F)[C@H](O)[C@H](C)O1` [YU244206, 2-((3-(2,3,5,6-tetrafluoro-4-hydroxyphenyl)propyl)disulfaneyl)ethyl ((2S,3S,4S,6R)-3-hydroxy-2-methyl-6-(((1S,3S)-3,5,12-trihydroxy-3-(2-hydroxyacetyl)-10-methoxy-6,11-dioxo-1,2,3,4,6,11-hexahydrotetracen-1-yl)oxy)tetrahydro-2H-pyran-4-yl)carbamate]: the “pH dependence of cell growth inhibition” value in data set [4] is “greater growth inhibition at acidic tumor pH”. The “body weight loss compared to sham treated controls” value in the data set on EMT-6 flank tumors is “no detectable weight loss”.
For the molecule `C=CC(=O)Nc1cc(Nc2nccc(-c3cn(C)c4ccccc34)n2)c(OC)cc1N(C)CCCc1c(F)c(F)c(O)c(F)c1F` [YU253673, N-(4-methoxy-2-(methyl(3-(2,3,5,6-tetrafluoro-4-hydroxyphenyl)propyl)amino)-5-((4-(1-methyl-1H-indol-3-yl)pyrimidin-2-yl)amino)phenyl)acrylamide], in data set [6] (pH 6.2), the “cell growth inhibition at pH 6.2” value is given as “potent cell growth inhibition”. Besides, in data set [6] (pH 6.2 vs pH 7.4), the “fold greater activity in tumor pH conditions compared with healthy pH conditions” value was “more than 30 fold”. The “cell growth inhibition at pH 7.4” value in data set [6] (pH 7.4) is on record as “no observed activity”. The “pH dependence of cell growth inhibition” value in data set [6] is given as “far greater activity at tumor pH 6.2”.
